In PubChem BioAssay (NCI) one finds TGI and GI50 data, which are given here for 10 compounds.

Molecules are shown by their SMILES.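 Five concentrations, 48 hours, 96-well plates. Here, GI50 denotes the concentration required for 50% inhibition of growth. TGI: concentration producing complete growth inhibition.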

Test systems include OVCAR-4 ovarian; SK-MEL-5 melanoma; IGROV1 ovarian; K-562 leukemia; ACHN renal; HCT-15 colon; CAKI-1 renal; SNB-19 CNS; KM12 colon; CCRF-CEM leukemia.
Holding throughout (assay): NCI tumour cell line growth inhibition, 48 h

As to `COC(=O)Oc1nn(C(=O)OC)c(=O)c2ccccc12` (tested in a mixture with another compound), the TGI in the assay on OVCAR-4 ovarian, with SK-MEL-5 melanoma, with IGROV1 ovarian, with K-562 leukemia, in the assay on ACHN renal and with HCT-15 colon was more than 100 µM each time. The TGI with CAKI-1 renal, in the assay with SNB-19 CNS, in the assay with KM12 colon and in the assay with CCRF-CEM leukemia was more than 100 µM in each case.

In the case of `Nc1nccc(C#Cc2cncnc2Nc2ccc(OCc3cccc(F)c3)c(Cl)c2)n1`, the GI50 in the assay on OVCAR-4 ovarian is 9.53 µM; in the assay on SK-MEL-5 melanoma it was 3.51 µM; with IGROV1 ovarian, 5.1 µM; with K-562 leukemia it was 4.24 µM; in the assay on ACHN renal, 4.2 µM; in the assay with HCT-15 colon, 3.69 µM. Further, the GI50 is 5.37 µM in the assay with CAKI-1 renal, 4.79 µM in the assay on SNB-19 CNS, 4.52 µM in the assay on KM12 colon and 1.33 µM in the assay on CCRF-CEM leukemia. Also, the TGI with OVCAR-4 ovarian is more than 25 µM; in the assay on SK-MEL-5 melanoma, 6.8 µM; in the assay on IGROV1 ovarian it was 20 µM; in the assay with K-562 leukemia it was more than 25 µM; with ACHN renal it was 10.6 µM; with HCT-15 colon, 11.4 µM. Besides, the TGI is 11 µM with CAKI-1 renal, 10 µM with SNB-19 CNS, 8.2 µM in the assay with KM12 colon and more than 19.2 µM in the assay on CCRF-CEM leukemia.

`CN(C)c1ccc(N=C(C#N)c2nc(N)nc(N3CCOCC3)n2)cc1`: the GI50 in the assay on OVCAR-4 ovarian is 46.6 µM; with SK-MEL-5 melanoma, 40.4 µM; in the assay with IGROV1 ovarian it was 34 µM; in the assay on K-562 leukemia, 62.1 µM; in the assay on ACHN renal, 23.3 µM; in the assay with HCT-15 colon, 52.9 µM. Moreover, the GI50 in the assay with CAKI-1 renal is 39.9 µM; in the assay with SNB-19 CNS it was more than 100 µM; with KM12 colon it was 53 µM; in the assay on CCRF-CEM leukemia, 97.2 µM. For the same compound, the TGI in the assay on OVCAR-4 ovarian was more than 100 µM; with SK-MEL-5 melanoma it was more than 100 µM; in the assay with IGROV1 ovarian it was more than 100 µM; in the assay on K-562 leukemia, more than 100 µM; in the assay on ACHN renal it was 68.4 µM; with HCT-15 colon it was more than 100 µM. Further, the TGI in the assay with CAKI-1 renal, in the assay with SNB-19 CNS, with KM12 colon and in the assay on CCRF-CEM leukemia was more than 100 µM in each case.

With `CCOC(=O)/C(=C/c1c(-c2ccccc2)[nH]c2ccccc12)C(=O)c1ccc(Cl)cc1`, the GI50 in the assay with OVCAR-4 ovarian is 4.82 µM; in the assay with SK-MEL-5 melanoma, 1.78 µM; with IGROV1 ovarian, 19.9 µM; in the assay on K-562 leukemia, 3.42 µM; with ACHN renal, 3.62 µM; in the assay on HCT-15 colon it was 4.06 µM. Besides, the GI50 in the assay with CAKI-1 renal is 4.12 µM; with SNB-19 CNS, 7.96 µM; with KM12 colon, 3.29 µM; in the assay with CCRF-CEM leukemia, 2.73 µM. In addition, the TGI in the assay on OVCAR-4 ovarian is more than 100 µM; in the assay on SK-MEL-5 melanoma, 4.1 µM; in the assay with IGROV1 ovarian, more than 100 µM; in the assay with K-562 leukemia it was more than 100 µM; in the assay with ACHN renal, more than 100 µM; in the assay with HCT-15 colon it was more than 100 µM. Further, the TGI with CAKI-1 renal, with SNB-19 CNS, with KM12 colon and in the assay on CCRF-CEM leukemia was more than 100 µM each time.

For `CC(=O)OCC1OC(n2cnc3c(I)nc(I)nc32)C(OC(C)=O)C1OC(C)=O` (configuration not stated), the TGI in the assay with OVCAR-4 ovarian is 17.4 µM; with SK-MEL-5 melanoma, 26.1 µM; with IGROV1 ovarian it was 19.8 µM; in the assay with K-562 leukemia it was 13.5 µM; with ACHN renal, 21.8 µM; in the assay on HCT-15 colon, 15.6 µM. The TGI came to 4.09 µM in the assay with CAKI-1 renal, 25 µM in the assay with SNB-19 CNS, 15.6 µM with KM12 colon and 27.4 µM in the assay with CCRF-CEM leukemia.

Regarding `CC[C@]12C=CCN3CC[C@]4(C(=C(C(=O)OC)C1)Nc1ccccc14)[C@@H]32`, the GI50 in the assay on OVCAR-4 ovarian is 4.4 µM; in the assay with SK-MEL-5 melanoma it was 4.87 µM; in the assay with IGROV1 ovarian it was 5.8 µM; in the assay on K-562 leukemia, 3.08 µM; in the assay on ACHN renal, 2.07 µM; in the assay on HCT-15 colon, 2.68 µM. Also, the GI50 is 4.7 µM in the assay on CAKI-1 renal, 10.7 µM in the assay on SNB-19 CNS, 3.65 µM in the assay on KM12 colon and 2.73 µM in the assay on CCRF-CEM leukemia. The TGI is 17.5 µM in the assay with OVCAR-4 ovarian; 16.8 µM in the assay on SK-MEL-5 melanoma; 20.6 µM in the assay with IGROV1 ovarian; 15.1 µM with K-562 leukemia; 4.54 µM with ACHN renal; 10.4 µM in the assay on HCT-15 colon. The TGI in the assay on CAKI-1 renal was 17.3 µM; with SNB-19 CNS, 23.3 µM; in the assay on KM12 colon it was 14.5 µM; in the assay on CCRF-CEM leukemia, more than 100 µM.

`S=c1nc(/C=C/c2ccc(Cl)c(Cl)c2)[nH][nH]1`: the figures for the GI50 in the assay on OVCAR-4 ovarian and in the assay on CAKI-1 renal were 65.5 µM and 70 µM, respectively. Further, the TGI in the assay on OVCAR-4 ovarian, with SK-MEL-5 melanoma, in the assay with IGROV1 ovarian, in the assay with K-562 leukemia, with ACHN renal and in the assay on HCT-15 colon was more than 100 µM each time. The TGI with CAKI-1 renal, with SNB-19 CNS, in the assay on KM12 colon and in the assay on CCRF-CEM leukemia was more than 100 µM each time.

Regarding `COc1ccc(C(NCCNC(c2ccc(OC)c(OC)c2)c2cc3c(cc2O)OCO3)c2cc3c(cc2O)OCO3)cc1OC` (configuration not stated), the TGI in the assay with OVCAR-4 ovarian was 11.5 µM; in the assay with SK-MEL-5 melanoma, 19.9 µM; in the assay on IGROV1 ovarian, 7.67 µM; with K-562 leukemia, more than 28.1 µM; with ACHN renal, 7.95 µM; with HCT-15 colon, 5.21 µM. Also, the TGI turned out to be 7.77 µM in the assay on CAKI-1 renal, 15.4 µM with SNB-19 CNS, 7.11 µM with KM12 colon and 0.86 µM in the assay with CCRF-CEM leukemia.

For `CC(=O)NNc1nc(C)c(C(/C=C/c2ccc3c(c2)OCO3)=N/NC(=O)c2ccncc2)s1`, the TGI with OVCAR-4 ovarian, in the assay with SK-MEL-5 melanoma, in the assay on IGROV1 ovarian, with K-562 leukemia, with ACHN renal and with HCT-15 colon was more than 100 µM each time. Further, the TGI with CAKI-1 renal, with SNB-19 CNS, with KM12 colon and with CCRF-CEM leukemia was more than 100 µM in each case.

As to `COc1ccc(Nc2nc3c(N)cc(C(F)(F)F)cc3nc2-c2ccccc2)cc1`, the TGI in the assay with OVCAR-4 ovarian, with SK-MEL-5 melanoma, in the assay with IGROV1 ovarian, with K-562 leukemia, in the assay on ACHN renal and in the assay on HCT-15 colon was more than 100 µM in each case. The TGI with CAKI-1 renal, with SNB-19 CNS, in the assay with KM12 colon and in the assay on CCRF-CEM leukemia was more than 100 µM in each case.
